Measured values reported in patent US11202787B2, “Use of ACTH in assessment and prophylactic treatment of hypokalemia associated with glucocorticoid receptor modulator treatment of Cushing's syndrome patients” (Corcept Therapeutics, Inc., priority 2018, dated 2021).
Like-named read-outs stand apart in the source and are kept apart here.

Tests used:
[1] = tested on: Cushing's syndrome patients; conditions: in vivo
Procedure: The risk of experiencing at least one episode of hypokalemia (potassium level <3.5 mEq/L) after 7 to 14 Days of exposure to KORLYM (mifepristone) was evaluated using stepwise multivariable logistic regression and single-variable logistic regression models. The following independent factors were evaluated for potential association with hypokalemia based on the biology of the disease: total cortisol at Day 1, ACTH at Day 1, and potassium level at Day 1.
The risk of experiencing at least one episode of hypokalemia (potassium level <3.5 mmol/L) after 28 Days of exposure to KORLYM was evaluated using stepwise multivariable logistic regression and single-variable logistic regression models. The following independent factors were evaluated for potential association with hypokalemia based on the biology of the disease: total cortisol at Day 1 and Day 14 (cort_01 and cort_14), ACTH at Day 1 and Day 14 (ACTH_01 and ACTH_14), and potassium levels at Day 1 and Day 14 (K_01 and K_14).
Patients were defined to have severe/recurrent hypokalemia for this analysis if they had at least one value of potassium of 2.5 mmol/L or lower, or if they had recurrent hypokalemia (hypokalemia occurring during multiple visits after Day 14 visit).
(§1) The Cushing's syndrome study reported herein was conducted in accordance with the Declaration of Helsinki and Good Clinical Practice (GCP) according to International Conference on Harmonization (ICH) guidelines.
(§2) Dosing Schedule Dosing was started with 300 mg of mifepristone once per day for 14 days. After 14 days, if no clinical improvement was seen but the drug was well tolerated, the dose of mifepristone was increased to 600 mg once per day. After 4 weeks of dosing at 600 mg once per day, if no clinical improvement was seen but the drug was well tolerated, the dose was increased to 900 mg once per day. Dose escalation was based on weight with the maximum dose no higher than 20 mg/kg/day. […] After 4 weeks of dosing at 900 mg once per day, if no clinical improvement was seen but the drug was well tolerated, the dose was increased to 1200 mg once per day. Study duration was 24 weeks.
Serum electrolytes, including potassium, were measured regularly throughout the study period.
Extensive modeling of low potassium levels among the N=47 subjects was performed to determine the best predictors of low potassium after start of mifepristone. The modeling was based on logistic regressions where the endpoint was categorical Low vs High Potassium levels (Non-Hypokalemic Potassium >3.5 mmol/L vs Hypokalemic Potassium ≤3.5 mmol/L).
(§3) Potassium levels were obtained on every subject at either screening or the pre-drug administration baseline visit, and then also at every scheduled post-baseline visit. Potassium levels post-baseline were therefore obtained as early as day 7 and through day 210 (week 30 was the last visit and was the 6 week follow-up visit). ACTH, and cortisol were measured at six visits (week 2 (day 14), week 6 (day 42), week 10 (day 70), week 16 (day 112), and week 24 (day 168) week 6 follow-up (day 210)).

cortisol = experiment: 24-hour urine cortisol during mifepristone treatment of Cushing's syndrome patients; type: in vivo, human; conditions: Mean ± SD
Procedure: as §1, §2, §3

[2] = tested on: psychotic major depression (PMD) subjects; experiment: Double blind psychotic major depression (PMD) trials: hypokalemia; type: in vivo, human
Source text: Clinically meaningful hypokalemia (≤3.1) has been reported in 16 of 821 (1.9%) mifepristone treated subjects (12 in completed double blind PMD trials, and 4 in a completed Alzheimer's trial), and in 5 of 626 (0.8%) placebo treated subjects in completed PMD trials.

healthy volunteers = experiment: Previous clinical studies in healthy volunteers: adverse events; type: in vivo, human
Source text: Hypokalemia and rash appear to be more common in subjects receiving mifepristone than in the control groups.

[3] = tested on: Cushing's syndrome patients; conditions: cited from earlier work
[4] = Day 210 (6 week follow-up), Hypokalemic
[5] = Day 210 (6 week follow-up), Non-Hypokalemic

developed hypokalemia on or after Day 28 ([1]; both, human): 6.7% | developed severe/recurrent hypokalemia on or after Day 28 ([1]; both, human): 6.7% | subjects with a Potassium value ≤3.5 mmol/L at any of the six visits ([1]; both, human): 21 subjects | subjects with a Potassium value ≤3.5 mmol/L at any post-baseline visit ([1]; both, human): 23 subjects | Number with Hypokalemia (%) (Potassium ≤ 3.4 mEq/L) ([1]; both, human, 6 week): 7 (14%) Number (%) | Number with Hypokalemia (%) (Potassium ≤ 3.4 mEq/L) ([1]; both, human, 8 week): 4 (8%) Number (%) | Number with Hypokalemia (%) (Potassium ≤ 3.4 mEq/L) ([1]; both, human, 10 week): 4 (8%) Number (%) | Number with Hypokalemia (%) (Potassium ≤ 3.4 mEq/L) ([1]; both, human, 12 week): 3 (6%) Number (%) | Number with Severe Hypokalemia (%) (Potassium ≤ 2.5 mEq/L) ([1]; both, human, 12 week): 1 (2%) Number (%) | Number with Hypokalemia (%) (Potassium ≤ 3.4 mEq/L) ([1]; both, human, 16 week): 5 (10%) Number (%) | Number with Severe Hypokalemia (%) (Potassium ≤ 2.5 mEq/L) ([1]; both, human, 16 week): 1 (2%) Number (%) | Number with Hypokalemia (%) (Potassium ≤ 3.4 mEq/L) ([1]; both, human, 20 week): 1 (2%) Number (%) | Number with Hypokalemia (%) (Potassium ≤ 3.4 mEq/L) ([1]; both, human, 24 week): 4 (8%) Number (%) | Hypokalemia observed ([1]; both, human, 24 weeks): 44% | No Hypokalemia ([1]; both, human, 24 weeks): 29 (64.4) n (%) | Non-Severe Hypokalemia ([1]; both, human, 24 weeks): 7 (15.6) n (%) | Severe/Recurrent Hypokalemia ([1]; both, human, 24 weeks): 9 (20.0) n (%) | developed hypokalemia after dosing ([1]; both, human, 24 weeks): 42.9% | Number with Hypokalemia (%) (Potassium ≤ 3.4 mEq/L) ([1]; both, human, 30 week): 3 (6%) Number (%) | Number with Severe Hypokalemia (%) (Potassium ≤ 2.5 mEq/L) ([1]; both, human, 30 week): 1 (2%) Number (%) | Number with Hypokalemia (%) (Potassium ≤ 3.4 mEq/L) ([1]; both, human, 1 day): 2 (4%) Number (%) | Number with Hypokalemia (%) (Potassium ≤ 3.4 mEq/L) ([1]; both, human, 7 day): 2 (4%) Number (%) | Number of Subjects Hypokalemic <=3.5 mmol/L ([1]; both, human, 14 day): 8 | Number of Subjects Non-Hypokalemic >3.5 mmol/L ([1]; both, human, 14 day): 38 | Number with Hypokalemia (%) (Potassium ≤ 3.4 mEq/L) ([1]; both, human, 14 day): 8 (16%) Number (%) | Number with Severe Hypokalemia (%) (Potassium ≤ 2.5 mEq/L) ([1]; both, human, 14 day): 1 (2%) Number (%) | subjects with a Potassium value ≤3.5 mmol/L as early as day 14 ([1]; both, human, 14 days): 8 | subjects with a Potassium value ≤3.5 mmol/L as early as day 14, all post-baseline values ([1]; both, human, 14 days): 11 | Number with Hypokalemia (%) (Potassium ≤ 3.4 mEq/L) ([1]; both, human, 28 day): 10 (20%) Number (%) | Number of Subjects Hypokalemic <=3.5 mmol/L ([1]; both, human, 42 day): 6 | Number of Subjects Non-Hypokalemic >3.5 mmol/L ([1]; both, human, 42 day): 35 | Number of Subjects Hypokalemic <=3.5 mmol/L ([1]; both, human, 70 day): 6 | Number of Subjects Non-Hypokalemic >3.5 mmol/L ([1]; both, human, 70 day): 30 | Number of Subjects Hypokalemic <=3.5 mmol/L ([1]; both, human, 112 day): 9 | Number of Subjects Non-Hypokalemic >3.5 mmol/L ([1]; both, human, 112 day): 23 | Number of Subjects Hypokalemic <=3.5 mmol/L ([1]; both, human, 168 day): 5 | Number of Subjects Non-Hypokalemic >3.5 mmol/L ([1]; both, human, 168 day): 37 | Number of Subjects Hypokalemic <=3.5 mmol/L ([1]; both, human, 210 day): 3 | Number of Subjects Non-Hypokalemic >3.5 mmol/L ([1]; both, human, 210 day): 37 | patients with at least one potassium value of 2.5 mmol/L or lower [1]: two | severity of hypokalemia [1]: mild to moderate | subjects with a day 7 Potassium value ≤3.5 mmol/L [1]: three | Clinically meaningful hypokalemia (≤3.1) ([2]; 16 of 821 mifepristone treated subjects, PMD and Alzheimer's trials together): 1.9% | Hypokalemia in the range of 2.4 to 3.4 mEq/L ([2]; 61 of 782 mifepristone treated subjects): 7.8% | Clinically meaningful hypokalemia (≤3.1), subjects ([2]; completed double blind PMD trials): 12
Structure (SMILES): CC#C[C@]1(O)CC[C@H]2[C@@H]3CCC4=CC(=O)CCC4=C3[C@@H](c3ccc(N(C)C)cc3)C[C@@]21C [mifepristone, 11β-(4-dimethylaminophenyl)-17β-hydroxy-17α-(1-propynyl)-estra-4,9-dien-3-one]
subjects with reported treatment emergent adverse events (TEAEs) of decreased blood potassium [1]: Seventeen | 24 Hour Urine Cortisol (nmol/24 hr)/ACTH Ratio Visit Values (cortisol; Day 42, Hypokalemic): 26.1 ± 18.4 (6) | 24 Hour Urine Cortisol Visit Change Values from Baseline (cortisol; Day 42, Hypokalemic): 641 ± 3678 (6) nmol/24 hr | 24 Hour Urine Cortisol Visit Values (cortisol; Day 42, Hypokalemic): 4373 ± 5347 (6) nmol/24 hr | 24 Hour Urine Cortisol (nmol/24 hr)/ACTH Ratio Visit Values (cortisol; Day 42, Non-Hypokalemic): 7.9 ± 6.0 (35) | 24 Hour Urine Cortisol Visit Change Values from Baseline (cortisol; Day 42, Non-Hypokalemic): 329 ± 967 (35) nmol/24 hr | 24 Hour Urine Cortisol Visit Values (cortisol; Day 42, Non-Hypokalemic): 886 ± 1060 (35) nmol/24 hr | 24 Hour Urine Cortisol (nmol/24 hr)/ACTH Ratio Visit Values (cortisol; Day 70, Hypokalemic): 33.5 ± 16.1 (6) | 24 Hour Urine Cortisol Visit Change Values from Baseline (cortisol; Day 70, Hypokalemic): 4856 ± 4805 (6) nmol/24 hr | 24 Hour Urine Cortisol Visit Values (cortisol; Day 70, Hypokalemic): 9132 ± 9321 (6) nmol/24 hr | 24 Hour Urine Cortisol (nmol/24 hr)/ACTH Ratio Visit Values (cortisol; Day 70, Non-Hypokalemic): 17.0 ± 32.7 (30) | 24 Hour Urine Cortisol Visit Change Values from Baseline (cortisol; Day 70, Non-Hypokalemic): 1045 ± 3500 (30) nmol/24 hr | 24 Hour Urine Cortisol Visit Values (cortisol; Day 70, Non-Hypokalemic): 1696 ± 3387 (30) nmol/24 hr | 24 Hour Urine Cortisol (nmol/24 hr)/ACTH Ratio Visit Values (cortisol; Day 112, Hypokalemic): 30.9 ± 31.0 (9) | 24 Hour Urine Cortisol Visit Change Values from Baseline (cortisol; Day 112, Hypokalemic): 2916 ± 2593 (9) nmol/24 hr | 24 Hour Urine Cortisol Visit Values (cortisol; Day 112, Hypokalemic): 3552 ± 2827 (9) nmol/24 hr | 24 Hour Urine Cortisol (nmol/24 hr)/ACTH Ratio Visit Values (cortisol; Day 112, Non-Hypokalemic): 9.6 ± 16.3 (23) | 24 Hour Urine Cortisol Visit Change Values from Baseline (cortisol; Day 112, Non-Hypokalemic): 104 ± 5293 (23) nmol/24 hr | 24 Hour Urine Cortisol Visit Values (cortisol; Day 112, Non-Hypokalemic): 1314 ± 3351 (23) nmol/24 hr | 24 Hour Urine Cortisol (nmol/24 hr)/ACTH Ratio Visit Values (cortisol; Day 168, Hypokalemic): 19.3 ± 9.5 (5) | 24 Hour Urine Cortisol Visit Change Values from Baseline (cortisol; Day 168, Hypokalemic): 4128 ± 6624 (5) nmol/24 hr | 24 Hour Urine Cortisol Visit Values (cortisol; Day 168, Hypokalemic): 5615 ± 5053 (5) nmol/24 hr | 24 Hour Urine Cortisol (nmol/24 hr)/ACTH Ratio Visit Values (cortisol; Day 168, Non-Hypokalemic): 12.4 ± 15.5 (36) | 24 Hour Urine Cortisol Visit Change Values from Baseline (cortisol; Day 168, Non-Hypokalemic): 512 ± 4575 (36) nmol/24 hr | 24 Hour Urine Cortisol Visit Values (cortisol; Day 168, Non-Hypokalemic): 1444 ± 3127 (36) nmol/24 hr | 24 Hour Urine Cortisol (nmol/24 hr)/ACTH Ratio Visit Values (cortisol; [4]): 11.5 ± 7.5 (3) | 24 Hour Urine Cortisol Visit Change Values from Baseline (cortisol; [4]): 2497 ± 3776 (3) nmol/24 hr | 24 Hour Urine Cortisol Visit Values (cortisol; [4]): 5129 ± 6335 (3) nmol/24 hr | 24 Hour Urine Cortisol (nmol/24 hr)/ACTH Ratio Visit Values (cortisol; [5]): 12.5 ± 27.9 (35) | 24 Hour Urine Cortisol Visit Change Values from Baseline (cortisol; [5]): 471 ± 2843 (35) nmol/24 hr | 24 Hour Urine Cortisol Visit Values (cortisol; [5]): 1423 ± 6086 (35) nmol/24 hr | frequently reported adverse events (healthy volunteers; previous clinical studies, healthy volunteers): headache, gastrointestinal symptoms including diarrhea, nausea and vomiting, and rash | Hypokalemia and rash versus control groups (healthy volunteers; subjects receiving mifepristone vs control groups): more common | patients with serum potassium levels less than 3.5 mEq/L ([3]; of 43 Cushing's syndrome patients (ACTH-dependent and ACTH-independent)): 22 patients | patients with serum potassium levels less than 2.5 mEq/L (severe hypokalemia) ([3]; of the 22 hypokalemic of 43 patients): 3 patients
